The text below walks through data of ChEMBL document CHEMBL1138438, “Structural-activity relationship study of highly-functionalized imidazolines as potent inhibitors of nuclear transcription factor-kappaB mediated IL-6 production” (Bioorg Med Chem, 2009).

The structures appear in SMILES notation. Calls of active or inactive are those of the source. The rule behind the calls is not given here.

The test system of data set [1] is Blood. Kind of data set: Antiinflammatory activity in human whole blood assessed as inhibition of IL-1-beta-stimulated IL6 production preincubated 2 hrs before IL1-beta challenge measured after 18 hrs by ELISA. The class given is functional, tissue-based. In general terms: ELISA stands for enzyme-linked immunosorbent assay.
Data set [2] is described as follows: Inhibition of NF-kappaB-mediated gene transcription expressed in TNF-alpha-stimulated human HeLa cells for 30 mins before TNFalpha challenge measured after 8 hrs by steady-glo luciferase reporter gene assay. The class given is cell-based. (A reporter such as luciferase makes a cellular process visible.)
Data set [3] in a line: Cytotoxicity against human 184B5 cells after 24 hrs by MTS assay. The class given is cell-based. (Tetrazolium assays rely on reduction of a dye to a coloured formazan, in cell work by metabolically active cells.)
Data set [4] has as its system HeLa. Kind of data set: Stimulation of NF-kappaB-mediated gene transcription expressed in human HeLa cells for 30 mins before TNFalpha challenge measured after 8 hrs by steady-glo luciferase reporter gene assay. It counts as cell-based.

As for `CC(C)OC(=O)[C@]1(c2ccccc2)N=C(c2ccccc2)N(Cc2ccccc2)[C@@H]1c1ccccc1` (racemic), the Activity result in data set [1] is “Dose-dependent effect”. Further, the IC50 – broadly, the midpoint of a concentration-inhibition curve – in data set [1] (read-out: IC50) is 1.9 µM; in data set [1] (read-out: Log IC50 (converted)) it was 1.95 µM. Further, in data set [2], the EC50 (commonly the concentration giving half of the maximal effect) is 3.5 µM. The 50% cytotoxic concentration (CC50) (in general, the concentration at which the toxic effect on the cells reaches its halfway point) at 24 h in data set [3] is over 10 µM. Moreover, the result in data set [4] was inactive.
Consider `CCOC(=O)[C@]1(c2ccccc2)N=C(c2ccccc2)N(Cc2ccccc2)[C@@H]1c1ccc(F)cc1` (racemic), for which the Activity result in data set [1] is “Dose-dependent effect”. Besides, the IC50 in data set [1] (read-out: IC50) is 1 µM; in data set [1] (read-out: Log IC50 (converted)) it was 1.05 µM. Further, in data set [2], the EC50 was found to be 5 µM. In data set [3], this molecule returned a 50% cytotoxic concentration (CC50) at 24 h of over 10 µM. Also, the result in data set [4] was inactive.
